From US20110177046A1, “DITHIAZOLIDINE AND THIAZOLIDINE DERIVATIVES AS ANTICANCER AGENTS” (Betagenon AB, priority 2007, published 2011)

What was measured:
[1] = test system: human primary mesangial cells; assay: Test G amelioration of TGFβ dependent collagen IV secretion (ELISA); type: cell-based; settings: 2.5 μM with TGFβ 0.5 ng/ml, 48 h, ELISA absorbance
Protocol: Human primary mesangial cells (Lonza) were seeded at a density of 57 00 cells per well in a 24 well plate in DMEM (Gibco 212885) supplemented with Non essential amino acids (Gibco 11140) Penicillin/streptomycin (Gibco 15140-122) and 10% Foetal Calf Serum (FBS) (Gibco 10500-064)
After 24 h incubation, media was changed to DMEM (Gibco 212885) supplemented with Non essential amino acids (Gibco 11140) Penicillin/streptomycin (Gibco 15140-122) and 0.5% Foetal Calf Serum (FBS)(Gibco 10500-064) as the experimental media. After 24 h incubation, media was changed to experimental media containing either vehicle or […] (0.5 ng/ml), compound of Example 1 (2.5 μM), or TGFβ (0.5 ng/ml) and compound of Example 1 (2.5 μM) in combination.
After 48 h of exposure the supernatant from each well was collected and subjected to ELISA analysis.
Using Nunc Maxisorp microtiter plates, duplicate samples of conditioned cell culture medium (diluted 1:10) was used for coating ([…], 18 h, +4° C.). […] After 3× washing in ELISA buffer, reactions were visualised using 100 μl/well TMB liquid substrate system for ELISA (Sigma) After maximum 30 min reactions were stopped by addition of 25 μl 1 M H2SO4 and immediately analysed at 450 nm using a Multiskan EX plate reader (Thermo Labsystems).

Ob/Ob mice [2] = assay: Test E plasma triglyceride study in diabetic Ob/Ob mice, Method (II); type: in vivo; settings: fed Ob/Ob mice, 15 mg/kg gavage twice daily for 20 days, vs vehicle
Protocol: (§1) The aim of this study was to verify the efficacy of compound of Example 1 in the diabetic ob/ob mouse with regard to correction of the metabolic disorder hypertriglyceridemia. Ob/ob mice were gavaged twice daily with compound of example 1 and the effect of the compound on levels of plasma triglycerides were assessed and the results were compared to a concurrent control group gavaged with vehicle.
(§2) Male B6.V-Lep^ob/JUmeaTac (model number UMEA-M) mice were bred and delivered by Taconic. Animals were housed in Umea University animal facility in transparent polycarbonate cages, with wood chip bedding at a 12 h light/darkness cycle, a temperature of −21° C., and a relative humidity of −50% throughout the accommodation and dosing periods. 5 animals were housed in each cage with free access to standard rodent chow (CRM(E)Rodent, Special Diets Services, Scanbur BK, Sweden) and tap water. All animal experiments were approved by the Local Ethics Review Committee on Animal Experiments, Umea Region.
(§3) In vivo potency and efficacy were determined in groups of 10 mice. […]
Plasma triglycerides were determined with an enzymatic colorimetric assay (TRO100, Sigma-Aldrich) according to the manufacturer's recommendations.
(§4) Data in the figures are presented as means±SEM. P values were calculated using the Student's t-test. […]

[3] = test system: MDA-MB-231 human breast cancer cells xenograft tumors; assay: Test B in vivo mouse model Test 2, tumor weight; parameters: species or system Athymic BALB/cA nude mice; settings: 8 mg/kg i.p. once daily for 27 days; vehicle control approximately 225 mg
Protocol: 5 week old Athymic BALB/cA nude mice are delivered from Taconic (Denmark) and kept under barrier conditions for 1 week acclimatisation. At 6 weeks, 17 mice are injected subcutaneously on the flank with 1.8×10^6 MDA-MB-231 human breast cancer cells (LGC Promochem-ATCC) in a 50/50 v/v solution of phosphate buffered saline (PBS) (Gibco 10010-015, Invitrogen) Matrigel HC (BD Biosciences).
After 11 days, palpable tumors are observed in 16 mice. 2 mice are sacrificed and the tumors dissected and examined. 2 groups of 7 mice each are treated once daily by intraperitoneal injections of 1-10 mg/kg bodyweight of test compound in 79% PBS/20% Solutol HS 15 (BASF)/1% DMSO or vehicle control respectively for 5-30 days. The mice are sacrificed by cervical dislocation and tumors are dissected.
The above test procedure was followed, but 16 (rather than 17) mice were injected subcutaneously.
2 groups of 8 mice each were treated once daily by intraperitoneal injections of 8 mg/kg bodyweight of compound of Example 1 in 79% PBS/20% Solutol HS 15(BASF)/1% DMSO or vehicle control respectively for 27 days. Tumors were dissected and weighed at the end of the experiment.

Ob/Ob mice [4] = assay: Test D blood glucose measurement study in diabetic Ob/Ob mice, Method (II); type: in vivo; settings: 30 mg/kg gavage twice daily for 18 days, vs vehicle
Protocol: as §1, with “hyperglycemia.” for “hypertriglyceridemia.”, “Example” for “example”, “blood glucose” for “plasma triglycerides”
as §2, with “B6.V-Lep^ob/JBomTac” for “B6.V-Lep^ob/JUmeaTac”, “OB-M)” for “UMEA-M)”, “˜21°” for “−21°”, “˜50%” for “−50%”
as §3
Blood glucose levels were measured by using a Glucometer Elite (Bayer) according to the manufacturer's recommendations.
as §4

[5] = test system: MDA-MB-231 human breast cancer cell lines; assay: Test A cell proliferation assay (BrdU incorporation); type: cell-based; settings: MDA-MB-231 cells; for BrdU incorporation relative to vehicle control (1 unit): approximate
Protocol: The cell line was propagated in D-MEM (Gibco 21885) supplemented with 10% Foetal calf serum. 15000 cells per well were seeded in 96 well plates and incubated overnight. The culture media was changed to serum-free D-MEM for 24 h. […] After 18 h incubation, BrdU was added according to manufacturer's recommendations. After 6 h incubation in the presence of BrdU, the culture media was removed and BrdU incorporation was measured using “Cell Proliferation ELISA, BrdU colorimetric” Roche (11647229001) according to manufacturer's recommendations.

[6] = test system: acetyl-CoA carboxylase (ACC); assay: Test F phosphorylation of ACC (Ser 79), Western blot in HepG2 cells; type: cell-based, human; settings: 10 μM
Protocol: (§5) The compound of Example 1 was obtained from Isosep AB, Uppsala, Sweden. A stock solution of 10 mM was prepared by dissolving the compound in 100% DMSO.
(§6) Human hepatoma HepG2 cells were purchased from American Type Culture Collection (ATCC, Manassas, USA). HepG2 cells were cultured in DMEM (Gibco 212885) containing 10% fetal bovine serum (Gibco 10500-064), 100 units/ml penicillin, 100 μg/ml streptomycin (Gibco 15140-122) and 1× non essential amino acids (Gibco 11140). The cells were incubated in a humidified atmosphere of 5% CO2 at 37° C. and passaged every 3 days by trypsinization. For experiments, HepG2 cells were incubated in complete medium with 10% fetal bovine serum in 60 or 100-mm-diameter dishes and grown to ˜70-80% confluence and subjected to assays after overnight serum depletion (16 h). After incubation in serum-free DMEM, the compound of Example 1 that was dissolved in DMSO was added to the medium.
Cells were lysed in 100 mM TRIS pH 6.8, 2% w/v Sodium dodecyl sulfate (SDS), 10 mM NaF, 10 mM β-glycerophosphate, 1 mM Na Vanadate. Protein concentration of the lysates was measured by BCA protein assay kit (Pierce #23225). […]

Ob/Ob mice [7] = assay: Test C insulin measurement study in diabetic Ob/Ob mice, Method (II); type: in vivo; settings: fed Ob/Ob mice, 30 mg/kg gavage twice daily for 18 days, vs vehicle
Protocol: as §1, with “hyperinsulinemia.” for “hypertriglyceridemia.”, “Example” for “example”, “insulin” for “triglycerides”
The compound of Example 1 was obtained from Isosep AB, Uppsala, Sweden. A stock solution of 6 mg/ml was prepared by dissolving the compound in PBS, pH 7.4, 1% DMSO and 0.5% methyl cellulose.
as §2, with “B6.V-Lep^ob/JBomTac” for “B6.V-Lep^ob/JUmeaTac”, “OB-M)” for “UMEA-M)”, “All animal experiments were approved by the Local Ethics Review Committee on Animal Experiments, Umea Region.” left out
as §3
Plasma insulin levels were determined according to the manufacturer's recommendations with a rat insulin ELISA kit using mouse insulin standard (Crystal Chem Inc).
as §4

AMPK = assay: Test F activation of AMPK, Western blot of phospho-AMPKα Thr172 in HepG2 cells; type: cell-based, human; settings: 10 μM
Protocol: as §5, §6
Cells were lysed in 100 mM TRIS pH 6.8, 2% w/v Sodium dodecyl sulfate (SDS), 10 mM NaF, 10 mM β-glycerophosphate, 1 mM Na Vanadate. Protein concentration of the lysates was measured by BCA protein assay kit (Pierce #23225). 25 μg protein was loaded in each well of a 4-12% bis/tris gel for AMPK detection (Criterion precast gel Bio-Rad #345-0124) or 5% Tris-HCl gel for acetyl-CoA carboxylase (ACC) detection (Criterion Precast gel Bio-Rad #345-0002) and run according to manufacturers recommendation. Gels were blotted onto nitrocellulose filters (Hybond-C extra Amersham #RPN203E). Filters were blocked in 20 mM TRIS pH 7.5, 137 mM NaCl, […] and 5% w/v fat free powdered milk for 30 min. Filters were incubated overnight in blocking solution with phospho-AMPKαThr172, AMPKα or phospho-ACC (Ser 79) (Cell signalling #2531, #2532 and #3661). Filters were washed in 20 mM TRIS pH 7.5, 137 mM NaCl, […] for 3×5 min. Filters were incubated in blocking solution with secondary antibody, peroxidase-conjugated Goat anti rabbit IgG (Jackson immunoResearch #111-035-003) in room temperature for 1 h. Filters were washed as above for 3×10 min. […]

O=C1N=C(NS(=O)(=O)c2ccc(Cl)c(Cl)c2)SC1Cc1cccc(C(F)(F)F)c1 (centres unmarked) [Example 1, 5-(3-(Trifluoromethyl)benzyl)-2-(3,4-dichlorophenyl)sulfonyliminothiazolidin-4-one]
Effect on TGFβ dependent collagen IV secretion [1]: ameliorate the TGFβ dependent collagen IV secretion
Effect on plasma triglycerides (Ob/Ob mice [2]): attenuated
Tumor weight at the end of the experiment [3]: about 130 mg
Effect on fed blood glucose levels (Ob/Ob mice [4]): attenuated
BrdU incorporation relative to vehicle control (1 unit) ([5]; 0.5 μM): ~0.95 units
BrdU incorporation relative to vehicle control (1 unit) ([5]; 1 μM): ~1 units
BrdU incorporation relative to vehicle control (1 unit) ([5]; 5 μM): ~0.5 units
BrdU incorporation relative to vehicle control (1 unit) ([5]; 10 μM): ~0.15 units
Effect on proliferation rate as measured by BrdU incorporation [5]: dose dependent reduction in proliferation
Effect on phosphorylation of ACC [6]: enhanced phosphorylation of ACC
Effect on hyperinsulinemia (plasma insulin) (Ob/Ob mice [7]): attenuates hyperinsulinemia
Effect on AMPK phosphorylation (AMPK): stimulates AMPK phosphorylation
Time for AMPK phosphorylation to rise to near maximal levels (AMPK): ≤ 1 h
Time for which AMPK phosphorylation was sustained (AMPK): 24 h
